Test results published in patent EP1667954B1, “BIPOLAR TRANS CAROTENOID SALTS AND THEIR USES” (Diffusion Pharmaceuticals LLC, priority 2003, dated 2005).

Legend:
[1] = system: rat model of acute hypoxia; details: hypoxia with 10% oxygen, treatment after 10 minutes; only 2 of 6 control animals survived; cited from earlier work
[2] = Aqueous solubility and solution stability of TSC / BTCS
Description: A dilute, eg .00001-.001M, solution of sodium carbonate can be added, dropwise, to deionized water until the pH is 8.0 (the pH of deionized water is usually 5-6). This only takes a few drops of the very dilute sodium carbonate per, say, 50 mls of deionized water.

[3] = Dissolution in normal saline and other salt solutions; type: physicochemical; details: no matter how much TSC is added (up to several milligrams per ml)
Method: Large volumes (as much as 3 times the estimated blood loss) of isotonic saline (also called normal saline) are infused as a treatment for hemorrhagic shock. The isotonic saline contains 9 g NaCl per liter of water so as not to disturb the ionic strength of the plasma once it is infused into the body. […] About 50% of the TSC dissolves in normal saline no matter how much TSC is added (up to several milligrams per ml), which means that undissolved particles of TSC are still present. […] The actual composition of the stock solution can be verified using UV-visible spectroscopy. This stock solution can be added to normal saline and the TSC remains dissolved.
This method can be used to dissolve a BTCS in other types of sodium chloride solutions, as well as in solutions of other salts such as KCl, Na2SO4, lactate, etc. Several, eg 1-3 mg/ml, can be put into solution in this manner.

[4] = system: hemorrhaged rats (55% blood volume); details: cited from earlier work
[5] = Diffusivity of oxygen through aqueous solutions
Description: TSC increases survival in mammals following hypoxia, increases oxygen consumption following hypoxia or physiological stress, increases blood pressure following hypoxia, decreases blood acidosis (i.e., decreases blood base deficit, increases blood pH, and decreases plasma lactate level) following hypoxia, decreases organ damage (e.g. liver, kidney) following hypoxia. Thus, the compounds of the disclosure are useful for treating mammal (including human) diseases/conditions which are characterized by low oxygen (hypoxia) such as respiratory diseases, hemorrhagic shock and cardiovascular diseases, multiple organ failure (due to, for example, ARDS sepsis or hemorrhagic shock), chronic renal failure, atherosclerosis, emphysema, asthma, hypertension, cerebral edema, papillomas, spinal cord injuries, stroke, among others. The compounds of the disclosure are also useful for treating mammals at risk for the above-noted diseases/conditions. Other bipolar trans carotenoid salts have similar properties.

[6] = TSC by inhalation: drug in the blood stream after nebulizing into the trachea; type: in vivo; details: rats
Method: TSC has been given to rats via an inhalation route. Ten rats were given TSC directly into the lungs. This was done by inserting a tube into the trachea, and nebulizing 0.2 ml of TSC solution (TSC dissolved in dilute sodium carbonate solution) with about 3 to 6 mls of air. For all dosages studied (0.5-2 mg/kg), about 20% of the drug was present in the blood stream within one minute after it was given. For dosages of .8 -1.6 mg/kg the drug was present in the blood stream for a period of at least two hours.

[7] = physchem; details: water
[8] = result in words; cited from earlier work

Row | Compound | survival and hemodynamic stability [1] | amount completely dissolved in sodium carbonate-deionized water solution ([2]; deionized water brought to pH 8.0 with dilute sodium carbonate) | stability of solutions in water ([2]; tap, distilled, deionized water) | amount of TSC that dissolves in normal saline [3] | survival ([4]; hemorrhaged rats (55% blood volume), bolus after hemorrhage, saline after another 30 minutes, all controls died) | Whole-body oxygen consumption ([4]; hemorrhaged rats, after about 15 minutes) | increase of diffusivity of oxygen through aqueous solutions [5] | drug present in the blood stream ([6]; inhalation (intratracheal nebulizing), all dosages 0.5-2 mg/kg, within one minute) | period the drug was present in the blood stream ([6]; inhalation, dosages of .8 -1.6 mg/kg) | solubility [7] [µg/mL] | solubility ([7]; pH 8) [µg/mL] | solubility in water [8]
1 | CC(/C=C/C=C(\C)C(=O)O)=C\C=C\C=C(C)\C=C\C=C(/C)C(=O)O [TSC, Trans sodium crocetinate] | all survived with good hemodynamic stability for over two hours | around 10 mg/ml | only stable if the pH is adjusted so as to make the solution basic | About 50% | All of the TSC-treated animals lived | 75 % of normal resting value | about 30% | about 20% | at least two | ~10000 | > 10000 | –
2 | CC(/C=C/C=C(\C)C(=O)O)=C\C=C\C=C(C)\C=C\C=C(/C)C(=O)O [crocetin] | – | – | – | – | – | – | – | – | – | – | – | only sparingly soluble
3 | CC(/C=C/C=C(\C)C(=O)O[C@@H]1O[C@H](CO[C@@H]2O[C@H](CO)[C@@H](O)[C@H](O)[C@H]2O)[C@@H](O)[C@H](O)[C@H]1O)=C\C=C\C=C(C)\C=C\C=C(/C)C(=O)O[C@@H]1O[C@H](CO[C@@H]2O[C@H](CO)[C@@H](O)[C@H](O)[C@H]2O)[C@@H](O)[C@H](O)[C@H]1O [crocin] | – | – | – | – | – | – | – | – | – | – | – | significant solubility
